Converted amounts (≈) assume the structure as drawn.
How the values were obtained:
S. aureus strains = assay: Broth microdilution MIC, range over the S. aureus strains; type: cell-based; conditions: Staphylococcus aureus; range over the four S. aureus strains
Description: (§1) The microorganisms used in this study include four bacterial (Staphylococcus aureus ATCC25923, methicillin sensitive S. aureus MSSA1, methicillin resistant S. aureus MRSA3 and methicillin resistant S. aureus MRSA4) and three yeast strains (Candida albicans ATCC10231, Candida tropicalis PK233 and Cryptococcus neoformans H99). These microorganisms were taken from our laboratory collection. The fungal and bacterial strains were grown at 37 °C and maintained on Sabouraud Dextrose Agar (SDA, Conda, Madrid, Spain) and nutrient agar (NA, Conda) slants respectively.
(§2) The inocula of bacteria and yeasts were prepared from overnight cultures as previously described. Absorbance was read spectrophotometrically at 530 nm and 600 nm for yeasts and bacteria respectively. The final concentrations of microbial suspensions were 2.5 × 10^5 cells/mL for yeasts and 10^6 CFU/mL for bacteria.
(§3) The antimicrobial activity was evaluated by determining the minimum inhibitory concentrations (MICs). MICs of extracts and compounds were determined by broth micro dilution. Each test sample was dissolved in 10% v/v aqueous dimethylsulfoxide (DMSO) to give a stock solution. […] After the incubation period, MICs were assessed visually and were taken as the lowest sample concentration at which there was no growth or virtually no growth. […]

C. neoformans H99 = assay: Broth microdilution antimicrobial assay (MIC/MMC); type: cell-based, Cryptococcus neoformans; conditions: for MIC / MFC: Cryptococcus neoformans, 48 h; for MIC: 37 °C, read-out: MIC; for MFC: no growth after sub-culturing
Description: as §1, §2
(§4) The antimicrobial activity was evaluated by determining the minimum inhibitory concentrations (MICs). MICs of extracts and compounds were determined by broth micro dilution. Each test sample was dissolved in 10% v/v aqueous dimethylsulfoxide (DMSO) to give a stock solution. This was serially diluted two-fold in Mueller-Hinton Broth (MHB) for bacteria and Sabouraud Dextrose Broth (SDB) for fungi to obtain a concentration range of 4096 to 0.25 μg/mL. Then, 100 μL of each sample concentration was added to respective wells (96-well micro plate) containing 90 μL of SDB/ MHB and 10 μL of inoculum to give final concentration ranges of 2048 to 4 μg/mL (for extracts) and 256 to 0.125 μg/mL (for compounds). Dilutions of nystatin (Sigma-Aldrich, Steinheim, Germany) and ciprofloxacin (Sigma-Aldrich, Steinheim, Germany) were used as positive controls for yeasts and bacteria respectively. Broth with 10 μL of DMSO was used as negative control. The cultured micro plates were covered; then, the contents of each well were mixed thoroughly using a plate shaker (Flow Laboratory, Germany) and incubated at 37 °C for 24 h (bacteria) and 48 h (yeasts) under shaking. After the incubation period, MICs were assessed visually and were taken as the lowest sample concentration at which there was no growth or virtually no growth. The lowest concentration that yielded no growth after the sub-culturing was considered as the minimum microbicidal concentrations (MMCs). All the tests were performed in triplicate.

C. tropicalis PK233 = assay: Broth microdilution antimicrobial assay (MIC/MMC); type: cell-based, Candida tropicalis; conditions: for MIC / MFC: Candida tropicalis, 48 h; for MIC: 37 °C, read-out: MIC; for MFC: no growth after sub-culturing
Description: as §1, §2, §4

[1] = DPPH free radical scavenging assay; conditions: Fig. 3; vitamin C standard
Description: The free radical scavenging activity of extracts and compounds was evaluated according to described methods. The EC50 (μg/ml), which is the amount of sample necessary to inhibit by 50% the absorbance of free radical DPPH was calculated. Vitamin C was used as a standard control. All the analyses were carried out in triplicate.

[2] = Ferric reducing antioxidant power (FRAP) assay; conditions: Perl's Prussian blue at 700 nm; Fig. 2; BHT positive control
Description: The FRAP was determined by the Fe^3+-Fe^2+ transformation in the presence of extracts and compounds as previously described. The Fe^2+ was monitored by measuring the formation of Perl’s Prussian blue at 700 nm. Butylated hydroxytoluene (BHT) was used as a positive control. All the tests were performed in triplicate.

[3] = system: bacterial and fungal strains; assay: Broth microdilution MIC, range over all tested strains; type: cell-based; conditions: for MIC: range over all bacterial and fungal strains, read-out: MIC
Description: as §1, §2, §4

S. aureus ATCC25923 = assay: Broth microdilution antimicrobial assay (MIC/MMC); type: cell-based, Staphylococcus aureus; conditions: for MIC / MBC: Staphylococcus aureus, 24 h; for MIC: 37 °C; for MBC: no growth after sub-culturing
Description: as §1, §2, §4

S. aureus MRSA3 = assay: Broth microdilution antimicrobial assay (MIC/MMC); type: cell-based, Staphylococcus aureus; conditions: for activity against methicillin-resistant S. aureus (in words): MRSA3; for MMC/MIC / MBC / MIC: S. aureus MRSA3; for MBC / MIC: Staphylococcus aureus, 24 h; for MBC: no growth after sub-culturing; for MIC: 37 °C
Description: as §1, §2, §4

S. aureus MSSA1 = assay: Broth microdilution antimicrobial assay (MIC/MMC); type: cell-based, Staphylococcus aureus; conditions: for MIC / MBC: Staphylococcus aureus, 24 h; for MIC: 37 °C; for MBC: no growth after sub-culturing
Description: as §1, §2, §4

S. aureus MRSA4 = assay: Broth microdilution antimicrobial assay (MIC/MMC); type: cell-based, Staphylococcus aureus; conditions: for activity against methicillin-resistant S. aureus (in words): MRSA4; for MMC/MIC / MBC / MIC: S. aureus MRSA4; for MBC / MIC: Staphylococcus aureus, 24 h; for MBC: no growth after sub-culturing; for MIC: 37 °C
Description: as §1, §2, §4

C. albicans ATCC10231 = assay: Broth microdilution antimicrobial assay (MIC/MMC); type: cell-based, Candida albicans; conditions: for MIC: Candida albicans, 37 °C, 48 h, read-out: MIC; for MMC: no growth after sub-culturing
Description: as §1, §2, §4

yeast strains = assay: Broth microdilution MIC, range over the yeast strains; type: cell-based; conditions: range over the three yeast strains
Description: as §1, §2, §3

Compound	MMC/MIC (C. neoformans H99)	MIC (C. neoformans H99)	MFC (C. neoformans H99)	MMC/MIC (C. tropicalis PK233)	MIC (C. tropicalis PK233)	MFC (C. tropicalis PK233)	MIC [3]	MMC/MIC (S. aureus ATCC25923)	MIC (S. aureus ATCC25923)	MBC (S. aureus ATCC25923)	MMC/MIC (S. aureus MRSA3)	MBC (S. aureus MRSA3)	MIC (S. aureus MRSA3)	MMC/MIC (S. aureus MSSA1)	MIC (S. aureus MSSA1)	MBC (S. aureus MSSA1)	MMC/MIC (S. aureus MRSA4)	MBC (S. aureus MRSA4)	MIC (S. aureus MRSA4)	MIC (C. albicans ATCC10231)	further results
COc1cc2c(=O)oc3c(OC)c(O)cc4c(=O)oc(c1O)c2c34 [Compound 7, 3,4′-di-O-methylellagic acid]	1	32 µg/mL (≈ 96.9 µM)	32 µg/mL (≈ 96.9 µM)	2	32 µg/mL (≈ 96.9 µM)	64 µg/mL (≈ 194 µM)	16 to 32 µg/mL (≈ 48.4 to 96.9 µM)	1	32 µg/mL (≈ 96.9 µM)	32 µg/mL (≈ 96.9 µM)	2	32 µg/mL (≈ 96.9 µM)	16 µg/mL (≈ 48.4 µM)	1	16 µg/mL (≈ 48.4 µM)	16 µg/mL (≈ 48.4 µM)	2	64 µg/mL (≈ 194 µM)	32 µg/mL (≈ 96.9 µM)	32 µg/mL (≈ 96.9 µM)	MIC (S. aureus strains): 16 to 32 µg/mL (≈ 48.4 to 96.9 µM); DPPH radical-scavenging activity (in words) [1]: highest EC50; reducing power (FRAP, in words) [2]: lowest reducing power; activity against methicillin-resistant S. aureus (in words) (S. aureus MRSA3): prominent activity; activity against methicillin-resistant S. aureus (in words) (S. aureus MRSA4): prominent activity; MMC/MIC (C. albicans ATCC10231): 2; MMC (C. albicans ATCC10231): 64 µg/mL
COC(=O)c1cc(O)c(O)c(O)c1-c1c(C(=O)OC)cc(O)c(O)c1O [Compound 8, dimethyl 4,4′,5,5′,6,6′-hexahydroxybiphenyl-2,2′-dicarboxylate]	1	32 µg/mL (≈ 87.4 µM)	32 µg/mL (≈ 87.4 µM)	1	16 µg/mL (≈ 43.7 µM)	16 µg/mL (≈ 43.7 µM)	8 to 128 µg/mL (≈ 21.8 to 349 µM)	2	32 µg/mL (≈ 87.4 µM)	64 µg/mL (≈ 175 µM)	2	128 µg/mL (≈ 349 µM)	64 µg/mL (≈ 175 µM)	1	32 µg/mL (≈ 87.4 µM)	32 µg/mL (≈ 87.4 µM)	2	256 µg/mL (≈ 699 µM)	128 µg/mL (≈ 349 µM)	128 µg/mL (≈ 349 µM)	DPPH radical-scavenging activity (in words) [1]: lowest EC50; reducing power (FRAP, in words) [2]: highest reducing power; MMC (C. albicans ATCC10231): > 256 µg/mL
O=c1oc2c(O)c(O)cc3c(=O)oc4c(O)c(O)cc1c4c23 [Compound 10, ellagic acid]	1	16 µg/mL (≈ 52.9 µM)	16 µg/mL (≈ 52.9 µM)	1	8 µg/mL (≈ 26.5 µM)	8 µg/mL (≈ 26.5 µM)	8 to 32 µg/mL (≈ 26.5 to 106 µM)	2	8 µg/mL (≈ 26.5 µM)	16 µg/mL (≈ 52.9 µM)	2	64 µg/mL (≈ 212 µM)	32 µg/mL (≈ 106 µM)	1	16 µg/mL (≈ 52.9 µM)	16 µg/mL (≈ 52.9 µM)	1	32 µg/mL (≈ 106 µM)	32 µg/mL (≈ 106 µM)	16 µg/mL (≈ 52.9 µM)	antimicrobial activity (in words) ([3]; all the tested bacterial and fungal species): active against all the tested bacterial and fungal species; activity against methicillin-resistant S. aureus (in words) (S. aureus MRSA3): prominent activity; activity against methicillin-resistant S. aureus (in words) (S. aureus MRSA4): prominent activity; MIC (yeast strains): 8 to 16 µg/mL (≈ 26.5 to 52.9 µM); MMC/MIC (C. albicans ATCC10231): 1; MMC (C. albicans ATCC10231): 16 µg/mL
